The test system of the assay is M. tuberculosis H37Rv growth inhibition. The assay is described as follows: M. tuberculosis H37Rv growth inhibitors, H37Rv strain (AID 1626). Conditions: for IC90: measured here: IC90 against H37Rv; for CC50: measured here: Vero cell cytotoxicity.

With `CCn1c(NC(=O)C2CCCCC2)nc2ccccc21`, the IC50 was 1.86 µM, the IC90 is greater than 100 µM and the CC50 is greater than 40 µM.

As to `Cc1ccccc1C(=O)Nc1nnc(-c2ccc(F)cc2)o1`, the concentration for half-maximal inhibition (IC50) was 1.11 µM, the 90% effect concentration (IC90) was determined as 3.78 µM and the half-maximal cytotoxic concentration (CC50) came out at 39.1 µM.

Regarding `CCOc1ccc(NC(=O)CCSc2ccc3ccccc3n2)cc1`, the IC50 is 6.54 µM and the IC90 was greater than 100 µM.

As for `O=C(c1ccccc1)N1CCN(c2ccc([N+](=O)[O-])cc2-n2cccc2)CC1`, the IC50 was 4.17 µM, the IC90 stood at 7.26 µM and the CC50 was greater than 40 µM.

As to `Cc1nn(-c2ccccc2)c(C)c1C(=O)Nc1nnc(-c2ccco2)o1`, the half-inhibitory concentration (IC50) is 13.5 µM, the IC90 is greater than 100 µM and the cytotoxic concentration (CC50) amounted to 38.5 µM.

With `CC(C)c1ccc2nc(N)sc2c1`, the 50% inhibitory concentration (IC50) was 43.3 µM, the concentration for an effect of 90% (IC90) is greater than 100 µM and the cytotoxic concentration (CC50) is greater than 40 µM.

On to `O=C(/C=C/c1cccc([N+](=O)[O-])c1)NC1CC2CCC1C2` (stereo not drawn), for which the IC50 was 6.04 µM and the IC90 is greater than 100 µM.

With `Cc1ccc(NC(=O)CSCC#N)cc1Cl`, the 50% inhibitory concentration (IC50) was 47.5 µM and the IC90 was greater than 100 µM.

Compound `Fc1cccc(-c2cc3nc(-c4ccccc4)cc(N4CCC5(CC4)OCCO5)n3n2)c1` returned a 90% effect concentration (IC90) greater than 100 µM.

In the case of `O=C(CCl)N(c1ccccc1)c1c[nH]c2ccccc12`, the IC50 is 3.84 µM, the 90% effect concentration (IC90) amounted to 8.14 µM and the CC50 came out at 0.995 µM.

For `O=c1oc2ccc3ccccc3c2cc1-c1nc2ccccc2o1`, the IC50 was 2.79 µM and the IC90 amounted to 7.33 µM.

In the case of `CCCCOC(=O)c1ccc(OC(=O)c2cccnc2)cc1`, the IC50 is 7.04 µM, the IC90 is greater than 100 µM and the half-maximal cytotoxic concentration (CC50) was greater than 40 µM.

Turning to `CC1CC(C)(C)Nc2ccc(OC(=O)c3ccco3)cc21` (stereo not drawn), the IC50 is 15.9 µM, the IC90 was determined as 22.2 µM and the CC50 was greater than 40 µM.

Turning to `Nc1ccccc1Nc1ccccc1`, the concentration for half-maximal inhibition (IC50) is less than 0.195 µM and the IC90 came out at 0.973 µM.

Regarding `NC1=NC[C@H](CC2CCCCC2)N1CCc1cc(C(F)(F)F)cc(C(F)(F)F)c1`, the IC50 was 8.62 µM, the concentration for an effect of 90% (IC90) was 11 µM and the CC50 came to 27.4 µM.

In the case of `CCCCNC(=O)Nc1nnc(-c2ccc(Cl)cc2)o1`, the IC50 is 1.33 µM and the concentration for an effect of 90% (IC90) came to 3.59 µM.

For `CCCC(=O)OCCNc1cc(Sc2nccn2C)c2nonc2c1[N+](=O)[O-]`, the half-maximal inhibitory concentration (IC50) is 17.9 µM, the concentration for an effect of 90% (IC90) worked out at 31.6 µM and the CC50 turned out to be 19.2 µM.

`Cc1ccsc1C(=O)Nc1nc2ccccc2[nH]1`: the half-maximal inhibitory concentration (IC50) is 20.4 µM, the IC90 is greater than 100 µM and the CC50 was found to be 25.3 µM.

With `COC(=O)CCn1c(C)cc(C(=O)COc2ccccc2C(N)=O)c1C`, the concentration for half-maximal inhibition (IC50) was 1.57 µM, the IC90 came to 31.1 µM and the cytotoxic concentration (CC50) was greater than 40 µM.

`OCCN1CCN(c2nc(-c3ccccc3)nc3c2oc2ccccc23)CC1`: the 50% inhibitory concentration (IC50) is 4.89 µM, the IC90 stood at 8.31 µM and the 50% cytotoxic concentration (CC50) turned out to be 13.6 µM.

In the case of `c1csc(Cc2nn3c(-c4n[nH]c5c4CCC5)nnc3s2)c1`, the 50% inhibitory concentration (IC50) is 0.412 µM, the 90% effect concentration (IC90) came to 11 µM and the CC50 was greater than 40 µM.

For the compound `CC1CCN(c2nc(-c3cccnc3)nc3scc(-c4ccccc4)c23)CC1`, the 50% inhibitory concentration (IC50) was 5.94 µM and the concentration for an effect of 90% (IC90) is 65.3 µM.

With `Cc1ccc(-c2ccccc2NC(=O)CCl)o1`, the concentration for half-maximal inhibition (IC50) is 18.6 µM, the IC90 is greater than 100 µM and the half-maximal cytotoxic concentration (CC50) was greater than 40 µM.

As to `CCn1cc(C(=O)O)c(=O)c2cc(F)c(N3CCNCC3)cc21`, the concentration for half-maximal inhibition (IC50) was 2.85 µM and the concentration for an effect of 90% (IC90) was 3.11 µM.

In the case of `Cc1ccc(NC(=O)c2sc3nc(C)nc(N4CCN(c5ccccn5)CC4)c3c2C)c(C)c1`, the 50% inhibitory concentration (IC50) is 10.7 µM and the concentration for an effect of 90% (IC90) was greater than 100 µM.

Regarding `Cc1ccc(CNc2nc(-c3cccs3)nc3ccccc23)cc1`, the half-inhibitory concentration (IC50) was 9.84 µM, the IC90 was 18.7 µM and the CC50 was greater than 40 µM.

As for `O=C(COC(=O)c1ccccc1Br)NCCC1=CCCCC1`, the IC50 was 17.6 µM and the 90% effect concentration (IC90) was greater than 100 µM.

Regarding `CC(=O)Nc1nc2ccccc2n1Cc1ccccc1`, the IC50 was 2.74 µM, the IC90 amounted to 3.59 µM and the half-maximal cytotoxic concentration (CC50) was greater than 40 µM.

Turning to `CC(C)(C)C1CCc2c(sc3nc(SCC(N)=O)nc(N)c23)C1` (stereo not drawn), the IC50 is 24.8 µM, the IC90 is greater than 100 µM and the CC50 was greater than 40 µM.

On to `CCOC(=O)N1CCN=C1SCc1ccc(C(F)(F)F)cc1`, for which the concentration for an effect of 90% (IC90) was greater than 100 µM.

As to `COC(=O)c1cccc(OC(N)=O)c1`, the IC50 was 72.9 µM and the 90% effect concentration (IC90) was greater than 100 µM.

Take `Cc1cc(OCc2nnc(SCC(=O)OC3CCCCC3)o2)ccc1Cl`: the IC50 was 0.372 µM and the 90% effect concentration (IC90) was determined as 2.57 µM.

In turn, `COc1ccc(N=C2C(=O)Nc3c(C)cccc32)cc1` registered an IC90 greater than 100 µM.

As for `Cc1[nH]n2c(=O)c3c(nc2c1-c1ccccc1)CCCC3`, the IC50 was 2.89 µM, the 90% effect concentration (IC90) came out at 4.05 µM and the half-maximal cytotoxic concentration (CC50) came out at 22.8 µM.

As to `CCOC(=O)c1ccc(N=Cc2nc3ccccc3n2C)cc1`, the IC50 was 12.7 µM and the IC90 is greater than 100 µM.

For the compound `CCc1cc2cc(C(=O)Nc3ccc(C)cc3)sc2s1`, the IC50 was 1.34 µM and the concentration for an effect of 90% (IC90) was 1.81 µM.

For the compound `O=C1CC(=C(c2ccccc2)c2ccccc2)C(=O)N1CCCCN1CCN(c2ccccc2)CC1`, the IC50 was 17.8 µM, the IC90 is 22.7 µM and the cytotoxic concentration (CC50) was greater than 40 µM.

For `Cc1nc(S/C(=C/c2ccc(-c3ccc(Cl)cc3)o2)C(=O)O)n[nH]1`, the concentration for half-maximal inhibition (IC50) was 10.6 µM, the IC90 is greater than 100 µM and the CC50 is greater than 40 µM.

As for `CC(C)[C@H]1C(=O)O[C@H](C(C)C)C(=O)N(C)[C@@H](C(C)C)C(=O)O[C@H](C(C)C)C(=O)N(C)[C@@H](C(C)C)C(=O)O[C@H](C(C)C)C(=O)N1C`, the IC50 was 7.26 µM, the IC90 is 8.9 µM and the CC50 stood at 12.3 µM.

On to `Cc1ccc(C2CC(C(F)(F)F)n3ncc(C(=O)NCc4ccco4)c3N2)cc1` (stereo not drawn), for which the half-maximal inhibitory concentration (IC50) was less than 0.195 µM and the IC90 was 3.64 µM.

`CC(=O)Nc1ccc(Nc2cc(C)nc3c(-c4ccccc4)c(C)nn23)cc1` showed an IC90 greater than 100 µM and a half-maximal cytotoxic concentration (CC50) greater than 40 µM.

In the case of `Cc1cccc(-c2ncc(CN3CCC(CO)(CCCc4ccccc4)CC3)cn2)c1`, the IC50 was 13.2 µM, the IC90 is 40.7 µM and the 50% cytotoxic concentration (CC50) is greater than 40 µM.

In the case of `CCCCCC(=O)Nc1ccc(-c2csc(C)n2)cc1`, the IC50 is 46 µM and the IC90 was greater than 100 µM.

In the case of `N#Cc1ccc(/C=C/C(=O)c2cccnc2)cc1`, the IC50 is 4.84 µM, the IC90 was found to be 6.15 µM and the CC50 turned out to be 19.3 µM.

`O=C(CN1C(=O)C2C3CCC(C3)C2C1=O)Oc1ccc2ccccc2c1` (stereo not drawn) came in with an IC90 greater than 100 µM.

As for `COc1ccc(NC(C#N)c2ccccc2OCc2ccccc2)cc1` (stereo not drawn), the IC50 is 69.8 µM and the IC90 is greater than 100 µM.

Consider `CN(c1ccccc1)c1nc(N2CCCC2)nc(-n2ccnc2)n1`, for which the IC50 is 3.05 µM, the 90% effect concentration (IC90) was 3.54 µM and the CC50 is greater than 40 µM.

Consider `O=c1cc(N=Nc2ccc(Cl)cc2)[nH]c(=O)[nH]1`, for which the IC50 was 13 µM, the concentration for an effect of 90% (IC90) is 14.5 µM and the CC50 is 7.51 µM.

Usually IC50 stands for the concentration that gives 50% inhibition. As usually defined, the IC90 is the concentration needed for an effect of 90%. Usually CC50 stands for the concentration at which the toxic effect on the cells reaches its halfway point. Higher therefore signals better tolerance by the cells.

The values above are taken from PubChem BioAssay AID1626 (SRMLSC, 2009).
